Holding throughout (assay type): in vitro ADME
A short description of data set [1]: In vitro plasma stability, mouse plasma. Conditions: C57 mouse plasma, 37° C.; for Percent remaining after 2 h incubation / k: 1.0 µM; for half-life at 1 µM: both sexes, pH 7.4, read-out: T½ (converted); for k: pH 7.4. An excerpt:
(§1) Human plasma (Bioreclamation, Cat#: BRH470404, male:female=1:1,v:v); Rat plasma (HDB, Cat#: HDB_RsP_20221120, male:female=1:1,v:v); C57 Mouse plasma (HDB, Cat#: HDB_MsP_202201120, male:female=1:1,v:v); Male cynomolgus monkey plasma (RILD, Cat#: MP210107-P). Analytical grade inorganic salts were purchased from Sinopharm Chemical Reagent Co. (Shanghai, China). HPLC grade organic solvents were purchased from Sigma-Aldrich, USA. Distilled water, prepared from demineralized water, was used throughout the study.
(§2) Stock solution of test compound was provided in 100% DMSO. The stock solution for each compound was diluted into 100 µM with ACN(50%) and then diluted into plasma of different species (pH 7.4) to achieve a final concentration of 1.0 µM.
(§3) 1.0 µM of test compound in duplicate was incubated in plasma at 37° C. Aliquots of 50 µL or 80 µL sample were collected at 0, 0.25, 0.5, 1 and 2 h.
(§4) An aliquot of 50 µL samples were collected at various time points, and mixed with 300 µL of ice-cold 100% acetonitrile containing internal standard. After centrifuging the plate at 4000 rpm for 20 min, 50 µL of supernatants were added with 100 µL H2O, mix well and analyzed with UPLC-MS/MS.
(§5) A Waters liquid chromatographic system was used. Detection was performed on an API4000 Q-Trap and API5500 mass spectrometer equipped with TurbolonSpray (ESI) Interface (Applied Biosystems, Concord, Ontario, Canada). Analyst 1.5 and 1.6.2 software packages (Applied Biosystems) were used to control the LC-MS/MS system, as well as for data acquisition and processing.
(§6) Chromatographic separation was achieved on the Waters ACQUITY UPLC BEH C18 column (50*2.1 mm ID, 1.7 µm) and Thermo Scientific AccucoreTM PFP column(100*2.1 ID mm, 2.6 µm). The column temperature was maintained at ambient temperature (25° C.). The flow rate was maintained at 0.6 mL/min and the mobile phases used were according to Tables 5-7.
(§7) The peak area ratio of test compound to internal standard is plotted as a percentage of the relevant zero time point control (% Remained) for each reaction. The rate of metabolism (k) is the slope of the linear regression from log percentage remaining versus incubation time.

Data set [2] in a line: In vitro plasma stability, human plasma. Conditions: 37° C.; for Percent remaining after 2 h incubation / k: 1.0 µM; for half-life at 1 µM: both sexes, pH 7.4, read-out: T½ (converted); for k: pH 7.4, slope of log % remaining versus incubation time.
Description: as §1, §2, §3, §4, §5, §6, §7

Data set [3] can be described thus: In vitro plasma stability, monkey plasma. Conditions: cynomolgus monkey plasma, 37° C.; for half-life at 1 µM: male, pH 7.4, read-out: T½ (converted).
Description: as §1, §2, §3, §4, §5, §6, §7

Data set [4] can be described thus: In vitro plasma stability, rat plasma. Particulars: SD rat plasma, 37° C.; for half-life at 1 µM: both sexes, pH 7.4, read-out: T½ (converted).
Description: as §1, §2, §3, §4, §5, §6, §7

In the case of `CC(=O)Oc1cccc2[nH]cc(CCN(C)C)c12` [Compound 4-AcO-DMT, 4-acetoxy-N,N-dimethyltryptamine], the “Percent remaining after 2 h incubation” value in data set [1], in data set [2], in data set [3] (1.0 µM) and in data set [4] (1.0 µM) was 0.00% each time. Further, the half-life at 1 µM in data set [1], in data set [2], in data set [3] and in data set [4] was under 7.5 min in each case.
As for `COc1ccc([C@@H]2Sc3ccccc3N(CCN(C)C)C(=O)[C@@H]2OC(C)=O)cc1` [Diltiazem], the “Percent remaining after 2 h incubation” value in data set [1] was 87.9%; in data set [2], 80.5%; in data set [3] (1.0 µM), 90.5%; in data set [4] (1.0 µM), 78.8%. Moreover, the half-life at 1 µM was 636 min in data set [1], 384 min in data set [2], 768 min in data set [3] and 405 min in data set [4].
Take `CCN(CC)CCOC(=O)c1ccc(N)cc1` [Procaine]: the “Percent remaining after 2 h incubation” value amounted to 0.00% in data set [1], 0.00% in data set [2], 0.00% in data set [3] (1.0 µM) and 52.0% in data set [4] (1.0 µM). Besides, the k came to 11.212 in data set [1]; 26.073 in data set [3] (1.0 µM, pH 7.4); 0.347 in data set [4] (1.0 µM, pH 7.4). Besides, the half-life at 1 µM in data set [1] was under 7.5 min; in data set [2], under 7.5 min; in data set [4] it was 120 min.
As to `CN(C)CCc1c[nH]c2cccc(O)c12` [Psilocin], the “Percent remaining after 2 h incubation” value is given as 89.2% in data set [1], 97.9% in data set [2], 92.8% in data set [3] (1.0 µM) and 86.2% in data set [4] (1.0 µM). In addition, the k in data set [1] is listed as 0.048; in data set [2], 0.034; in data set [3] (1.0 µM, pH 7.4), 0.039; in data set [4] (1.0 µM, pH 7.4), 0.092. The half-life at 1 µM in data set [1] was 870 min; in data set [2], 1230 min; in data set [3], 1070 min; in data set [4], 452 min.
Regarding `CN(C)CCc1c[nH]c2cccc(OP(=O)(O)O)c12` [Psilocybin], the “Percent remaining after 2 h incubation” value in data set [1] worked out at 93.2%; in data set [2] it was 19.4%; in data set [3] (1.0 µM), 113%; in data set [4] (1.0 µM), 113%. Also, the k in data set [1] was 0.008; in data set [2] it was 0.849; in data set [3] (1.0 µM, pH 7.4), -0.046; in data set [4] (1.0 µM, pH 7.4), -0.066. Moreover, the half-life at 1 µM is 5490 min in data set [1] and 49.2 min in data set [2]. Besides, the T½ entry in data set [3] (1.0 µM, pH 7.4) is given as “stable”; in data set [4] (1.0 µM, pH 7.4) it was “stable”.

Source of the values: patent US20230346747A1, “DIALKYL T[…] THEIR […] USES” (CAAMTECH, INC., priority 2020, published 2023).
